Assay results: US5952335A, “Fused polycyclic heterocycle derivatives” (Eisai Co., Ltd., priority 1995, dated 1999)
Structures can show the parent of a compound that is named as a salt. Where two headings read alike, the source gives them in different places.

Tests used:
[1] = test system: P388 cells; test: in vitro Antitumor Test on P388 Cells (Mouse Leukemic Cells), MTT, 3 days; type: cell-based; conditions: 72 h, 3 days incubation
Description: P388 cells suspended in RPMI1640 medium (manufactured by Sanko Junyaku) containing 10% of fetal calf serum, (100 U/ml) of penicillin, 100 μg/ml of streptomycin, 5×10^-5 M of mercaptoethanol and 1 mM of sodium pyruvate were pipetted into a 96-well U-bottomed microplate at a ratio of 1.25×10^3 cells (0.1 ml) per well and incubated in a incubator containing 5% of carbon dioxide at 37° C. for a day. A compound of the present invention was dissolved in dimethyl sulfoxide to give a concentration of 10^-2 M and then diluted with the 10% fetal calf serum-containing RPMI1640 culture medium to give a concentration of 10^-4 or 10^-5 M. By taking this concentration as the maximal level, threefold serial dilution was effected with the use of the 10% fetal calf serum-containing RPMI1640 culture medium. Then these dilutions were added to the P388 incubation plate as described above at a ratio of 0.1 ml per well followed by incubation in an incubator containing 5% of carbon dioxide at 37° C. for 3 days. After the completion of the incubation, 0.05 ml/well of a 3.3 mg/ml solution of MTT [3-(4,5-dimethylthiazol-2-yl)-2,5-diphenyltetrazolium bromide] was added thereto and the incubation was continued for additional 2 hours. The microplate was centrifuged and the supernatant was aspirated off from each well. Then the formazan thus formed was dissolved in 0.1 ml of dimethyl sulfoxide and the absorbance thereof at 540 nm measured with a microplate reader was taken as an indication of the viable cell count. In accordance with the following formula, the inhibitory ratio was calculated and the 50% inhibitory concentration (IC50) of the test compound was determined: [formula] wherein T means the absorbance of a well containing the test compound; and C means the absorbance of a well containing no test compound.

[2] = test system: MX-1 (Human Mammary Cancer); test: in vivo Antitumor Test on MX-1 (Human Mammary Cancer) transplanted in nude mice; conditions: Mus musculus, ip, 528 h, i.p., q7d × 3
Description: MX-1 tumor pieces (about 1 mm^3) were subcutaneously transplanted into the side part of each nude mouse (BALB/C.nu/nu, 6 to 7 weeks, female). A compound of the present invention was dissolved in a 5% solution of glucose. When the tumor volume reached 50 mm^3 (on the about 10th day after the transplantation), the solution of the compound was intraperitoneally administered to the animals once a day in accordance with each schedule. On the other hand, a 5% solution of glucose was administered to the control group. The control group had 10 animals, while each test group had 5 animals. On the 22nd day after the transplantation, tumors were taken out and weighed. The tumor multiplication inhibitory ratio of each test group to the control group was determined in accordance with the following formula: [formula] wherein T means the average tumor weight of the test group; and C means the average tumor weight of the control group.

[3] = test system: M5076 (Mouse Reticulum Cell Sarcoma); test: in vivo Antitumor Test on M5076 (Mouse Reticulum Cell Sarcoma) transplanted in BDF1 mice; conditions: M5076, ip, 504 h, i.p.; for survival rate on day 21 at 50 mg/kg / inhibition in vivo at 50 mg/kg: 50 mg/kg/day
Description: M5076 cells (1×10^6 /animal) were subcutaneously transplanted into the side part of each BDF1 mouse (aged 6 to 7 weeks, female). A compound of the present invention was dissolved in a 5% solution of glucose. From the next day of the transplantation, the solution of the compound was intraperitoneally administered to the animals once a day in accordance with each schedule. On the other hand, a 5% solution of glucose was administered to the control group. The control group had 10 animals, while each test group had 5 animals.
On the 21st day after the transplantation, tumors were taken out and weighed. The tumor multiplication inhibitory ratio of each test group to the control group was determined in accordance with the following formula: [formula] wherein T means the average tumor weight of the test group; and C means the average tumor weight of the control group.

[4] = d1,2,3,4 after transplantation, read-out: Survival rate on the judgement day (21th day)
[5] = d1,2,3,4 after transplantation, tumor weight day 21, read-out: Proliferation inhibitory ratio (%)

| IC50 [1] [nM] | SMILES | further results |
| --- | --- | --- |
| 350 | Cc1ccc(S(=O)(=O)Nc2ccc3c(ccc4c3c3cccc5c(=O)n(CCN(C)C)c(=O)n4c53)c2)cc1 [Example 48, 5-[2-(Dimethylamino)ethyl]-11-(4-methylbenzenesulfonamido)-4H-benzo[c]pyrimido[5,6,1-jk]carbazole-4,6(5H)-dione hydrochloride] | – |
| 30 | CN(C)CCn1c(=O)c2cccc3c4c5ccc(N)cc5ccc4n(c1=O)c23 [Example 49, 11-Amino-5-[2-(dimethylamino)ethyl]-4H-benzo[c]pyrimido [5,6,1-jk]carbazole-4,6(5H)-dione dihydrochloride] | – |
| 7.1 | CC(=O)Nc1ccc2c(ccc3c2c2cccc4c(=O)n(CCN(C)C)c(=O)n3c42)c1 [Example 50, 11-Acetamido-5-[2-(dimethylamino)ethyl]-4H-benzo[c]pyrimido[5,6,1-jk]carbazole-4,6(5H)-dione hydrochloride] | – |
| 290 | CN(C)CCN(C)CCn1c(=O)c2cccc3c4c5ccccc5ccc4n(c1=O)c23 [Example 51, 5-[2-[N-[2-(Dimethylamino)ethyl]-N-methylamino]ethyl]-4H-benzo[c]pyrimido[5,6,1-jk]carbazole-4,6(5H)-dione dihydrochloride] | – |
| 300 | CN(C)CCn1c(=O)c2cc(O)cc3c4c5ccccc5ccc4n(c1=O)c23 [Example 53, 5-[2-[Dimethylamino)ethyl]-2-hydroxy-4H-benzo[c]pyrimido [5,6,1-jk]carbazole-4,6(5H)-dione hydrochloride] | – |
| 80 | COc1cccc2c1ccc1c3cccc4c(=O)n(CCN(C)C)c(=O)n(c43)c21 [Example 54, 2-[2-(Dimethylamino)ethyl]-9-methoxy-1H-benzo[a]pyrimido [5,6,1-jk]carbazole-1,3(2H)-dione hydrochloride] | – |
| 11 | O=c1c2cccc3c4c5cccnc5ccc4n(c(=O)n1CCN1CCCC1)c23 [Example 55, 9-[2-(1-Pyrrolidinyl)ethyl]-8H-pyrido[2,3-c]pyrimido[5,6,1-jk]carbazole-8,10(9H)-dione dihydrochloride] | – |
| 15 | CN(C)CCn1c(=O)c2ccc(F)c3c4c5cccnc5ccc4n(c1=O)c23 [Example 56, 9-[2-(Dimethylamino)ethyl]-13-fluoro-8H-pyrido[2,3-c]pyrimido[5,6,1-jk]carbazole-8,10(9H)-dione dihydrochloride] | – |
| 31 | Cc1ccc2c(ccc3c2c2cccc4c(=O)n(CCN(C)C)c(=O)n3c42)n1 [Example 57, 9-[2-(Dimethylamino)ethyl]-3-methyl-8H-pyrido[2,3-c]pyrimido[5,6,1-jk]carbazole-8,10(9H)-dione dihydrochloride] | – |
| 155 | CN(C)CCn1c(=O)c2nc3ccccc3c3c4ccc5ccccc5c4n(c1=O)c23 [Example 58, 7-[2-(Dimethylamino)ethyl]-6H-benzo[c,i]pyrimido[1,6,5-lm]-β-carboline-6,8(7H)-dione] | – |

| SMILES | IC50 [1] [nM] | further results |
| --- | --- | --- |
| CN(C)CCn1c(=O)c2cccc3c4c5c(ccc4n(c1=O)c23)C(=O)CC5 [Example 7, 11,12-Dihydro-5-[2-(dimethylamino)ethyl]-4H,10H-ccylopenta[c]pyrimido[5,6,1-jk]carbazole-4,6,10(5H)-trione hydrochloride] | 31 | responders at 15 mg/kg ([2]; 15 mg/kg/day, read-out: Survival rate on the judgement day (22th day)): 100%; inhibition in vivo at 15 mg/kg ([2]; 15 mg/kg/day, tumor weight day 22, read-out: Proliferation inhibitory ratio (%)): 73.2% |
| CNCCn1c(=O)c2cccc3c4c5c(ccc4n(c1=O)c23)C(=O)CCC5 [Example 10, 12,13-Dihydro-5-[2-(methylamino)ethyl]-4H-benzo[c]pyrimido[5,6,1-jk]carbazole-4,6,10(5H,11H)-trione hydrochloride] | 8.5 | responders at 10 mg/kg ([2]; 10 mg/kg/day, read-out: Survival rate on the judgement day (22th day)): 100%; inhibition in vivo at 10 mg/kg ([2]; 10 mg/kg/day, tumor weight day 22, read-out: Proliferation inhibitory ratio (%)): 59.7% |
| O=C1CCCc2c1ccc1c2c2cccc3c(=O)n(CCN4CCCC4)c(=O)n1c32 [Example 11, 12,13-Dihydro-5-[2-(1-pyrrolidinyl)ethyl]-4H-benzo [c]pyrimido[5,6,1-jk]carbazole-4,6,10(5H,11H)-trione hydrochloride] | 42 | responders at 30 mg/kg ([2]; 30 mg/kg/day, read-out: Survival rate on the judgement day (22th day)): 100%; inhibition in vivo at 30 mg/kg ([2]; 30 mg/kg/day, tumor weight day 22, read-out: Proliferation inhibitory ratio (%)): 82.5% |
| O=c1c2cccc3c4c5ccccc5ccc4n(c(=O)n1CCN1CCCC1)c23 [Example 12, 5-[2-(1-Pyrrolidinyl)ethyl]-4H-benzo[c]pyrimido[5,6,1-jk]carbazole-4,6(5H)-dione hydrochloride] | 62 | survival rate on day 21 at 50 mg/kg [3, 4]: 100%; inhibition in vivo at 50 mg/kg [3, 5]: 93.9% |
| CN(C)CCn1c(=O)c2cccc3c4c(n(c1=O)c32)Cc1ccccc1-4 [Example 20, 2-[2-(Dimethylamino)ethyl]-1H,11H-indeno[1',2':4,5]pyrrolo[3,2,1-ij]quinazoline-1,3(2H)-dione hydrochloride] | 570 | survival rate on day 21 at 12.5 mg/kg ([3]; 12.5 mg/kg/day, d1,2,3,4 after transplantation, read-out: Survival rate on the judgement day (21th day)): 100%; inhibition in vivo at 12.5 mg/kg ([3]; 12.5 mg/kg/day, d1,2,3,4 after transplantation, tumor weight day 21, read-out: Proliferation inhibitory ratio (%)): 70.8% |
| COc1ccc2ccc3c(c2c1)c1cccc2c(=O)n(CCN(C)C)c(=O)n3c21 [Example 26, 5-[2-(Dimethylamino)ethyl]-12-methoxy-4H-benzo[c]pyrimido [5,6,1-jk]carbazole-4,6(5H)-dione hydrochloride] | 230 | survival rate on day 21 at 50 mg/kg [3, 4]: 100%; inhibition in vivo at 50 mg/kg [3, 5]: 97.4% |
| CN(C)CCn1c(=O)c2cccc3c4c5cnccc5ccc4n(c1=O)c23 [Example 33, 9-[2-(Dimethylamino)ethyl]-8H-pyrido[4,3-c]pyrimido[5,6,1-jk]carbazole-8,10(9H)-dione dihydrochloride] | 56 | survival rate on day 21 at 50 mg/kg ([3]; d9 after transplantation, read-out: Survival rate on the judgement day (21th day)): 100%; inhibition in vivo at 50 mg/kg ([3]; d9 after transplantation, tumor weight day 21, read-out: Proliferation inhibitory ratio (%)): 74.9% |
| CN(C)CCn1c(=O)c2cccc3c4c5ccc(C#N)cc5ccc4n(c1=O)c23 [Example 35, 11-Cyano-5-[2-(dimethylamino)ethyl]-4H-benzo[c]pyrimido [5,6,1-jk]carbazole-4,6(5H)-dione hydrochloride] | 63 | survival rate on day 21 at 25 mg/kg ([3]; 25 mg/kg/day, d9 after transplantation, read-out: Survival rate on the judgement day (21th day)): 100%; inhibition in vivo at 25 mg/kg ([3]; 25 mg/kg/day, d9 after transplantation, tumor weight day 21, read-out: Proliferation inhibitory ratio (%)): 78.7% |
| CN(CCO)CCn1c(=O)c2cccc3c4c5ccccc5ccc4n(c1=O)c23 [Example 52, 5-[2-[N-(2-(Hydroxyethyl)-N-methylamino]ethyl]-4H-benzo[c]pyrimido[5,6,1-jk]carbazole-4,6(5H)-dione hydrochloride] | 150 | survival rate on day 21 at 50 mg/kg [3, 4]: 100%; inhibition in vivo at 50 mg/kg [3, 5]: 70.6% |
